According to patent US8722663B2, “Di-substituted pyridine derivatives as anticancers” (Otsuka Pharmaceutical Co., Ltd., priority 2010, dated 2014):
Structures can show the parent of a compound that is named as a salt.

Key:
[1] = system: Human prostate cancer cells (LNCaP-Bic); assay: Antitumor effect on LNCaP-Bic tumors transplanted in nude mice, tumor weight; assay type: in vivo; conditions: Mus musculus, po, 336 h, 10 mg/kg/day orally, once daily, 14 consecutive days, read-out: T/C(%) (10 mg/kg/day), tumor weight treated/control
Procedure: (§1) Human prostate cancer cells (LNCaP-Bic) were transplanted in nude mice (6 males/group) and the inhibitory effect of the invention on their growth was examined. In the study, the tumor cell suspension with matrigel was inoculated at 0.12 mL/body (2.4×10^6 cells/body) into the subcutaneous space of the right axillary region to prepare tumor bearing mice. When the tumor diameter became 5 mm or more, the animals were allocated to groups based on the tumor volume. The test compound was administered orally as a suspension in 5% gum arabic, once daily, for 14 consecutive days. The control group received 5% gum arabic. Tumor volumes were measured on the following day of the last administration. Tumors were removed and the wet weight of the tumor was measured using an electronic balance. The ratio of the tumor weight in the treated group to that in the control group (T/C %) was calculated as the index for the effect. T/C %=(Mean tumor weight in the treatment group/Mean tumor weight in the control group)×100.

[2] = system: human prostate (carcinoma) cell line (DU 145); assay: Growth inhibition of DU 145 cells, WST-8 assay; assay type: cell-based; conditions: 120 h, 5 days with test compound
Procedure: (§2) The growth inhibition on a bicalutamide resistant human prostate cancer cell line established from LNCaP.FGC (LNCaP-Bic) (Hobisch A, et al. Prostate. 2006; 66(4):413-20.) was determined by a WST-8 assay according to the method of Singh A K, et al. (Cancer Lett. 1996 Oct. 1; 107(1): 109-15.). In this method, LNCaP-Bic cells were seeded in RPMI 1640 medium containing 10% fetal bovine serum in a 96-well microplate and incubated at 37° C. for 24 hours in the presence of 5% carbon dioxide. Then, the test compound was added and the cells were incubated for another 5 days. After incubation, a 15-μL volume of WST-8 (2-(2-methoxy-4-nitrophenyl)-3-(4-nitrophenyl)-5-(2,4-[…])-2H-tetrazolium, monosodium salt) was added. After the incubation for the time, the color reaction was stopped by adding 15 μL of 1% SDS (sodium dodecyl sulfate) solution and the optical density was determined at the measurement wavelength of 450 nm and the reference wavelength of 630 nm, and the difference was calculated. The cell growth activity in each well was defined as the value determined by subtracting the OD in the control well not containing cells (the difference in absorbance between 450 nm and 630 nm) from that in the test well.
(§3) The 50% inhibitory concentration (IC50 (nM)) of the test compound was determined by comparing the cell growth activity in the well containing the test compound with that of the control not containing the test compound.
The growth inhibition on a human prostate (carcinoma) cell line (DU 145) (van Bokhoven A, et al. Prostate. 2003; 57(3):205-25.) was also determined by the above method.

[3] = system: human prostate (adenocarcinoma) cell line (PC-3); assay: Growth inhibition of PC-3 cells, WST-8 assay; assay type: cell-based; conditions: 120 h, 5 days with test compound
Procedure: as §2, §3
The growth inhibition on a human prostate (adenocarcinoma) cell line (PC-3) (van Bokhoven A, et al. Prostate. 2003; 57(3):205-25.) was also determined by the above method.

[4] = system: human prostate (adenocarcinoma) cell line (VcaP); assay: Growth inhibition of VcaP cells, WST-8 assay; assay type: cell-based; conditions: 120 h, 5 days with test compound
Procedure: as §2, §3
The growth inhibition on a human prostate (adenocarcinoma) cell line (VcaP) (Korenchuk S, et al. In Vivo. 2001; 15(2):163-8.) was also determined by the above method.

[5] = system: human prostate (carcinoma) cell line (LNCaP.FGC); assay: Growth inhibition of LNCaP.FGC cells, WST-8 assay; assay type: cell-based; conditions: 120 h, 5 days with test compound
Procedure: as §2, §3
The growth inhibition on a human prostate (carcinoma) cell line (LNCaP.FGC) (van Bokhoven A, et al. Prostate. 2003; 57(3):205-25.) was also determined by the above method.

PSA = assay: Plasma levels of PSA in LNCaP-Bic tumor bearing nude mice, ELISA; assay type: in vivo; conditions: Mus musculus, po, 336 h; 10 mg/kg/day orally, once daily, 14 consecutive days; plasma PSA by ELISA; read-out: T/C(%) (10 mg/kg/day), plasma levels of PSA treated/control
Procedure: as §1
The heparinized blood was collected from the postcava under diethylether anesthesia. The plasma levels of PSA were measured using ELISA. The ratio of the plasma levels of PSA in the treated group to that in the control group (T/C %) was calculated as the index for the effect. T/C %=(Mean plasma levels of PSA in the treatment group/Mean plasma levels of PSA in the control group)×100.

[6] = system: bicalutamide resistant human prostate cancer cell line established from LNCaP.FGC (LNCaP-Bic); assay: Growth inhibition of LNCaP-Bic cells, WST-8 assay; assay type: cell-based; conditions: 120 h, 5 days with test compound
Procedure: as §2, §3

[7] = system: human hepatic cancer cell line (HuH-7); assay: Growth inhibition of HuH-7 cells, sulforhodamine B method; assay type: cell-based; conditions: Homo sapiens, 120 h, 5 days with test compound
Procedure: (§4) Growth inhibition of a human breast cancer cell line (MDA-MB-468) was determined by the sulforhodamine B method based on the method of Skehan P. et al. (J Natl Cancer Inst. 1990 Jul. 4; 82(13): 1107-12). In the study, MDA-MB-468 cells were seeded on DMEM medium containing 10% fetal bovine serum in a 96-well microplate. After 24-h incubation at 37° C. in the presence of 5% carbon dioxide, the test compound was added and the cells were incubated for another 5 days. After incubation, a trichloroacetic acid solution was added to yield the final concentration of 10% and the cells were left to stand at 4° C. for 1 hour to fix. Then, the cells were washed with water to remove the medium and trichloroacetic acid and dried in the air. The dried cells were stored at 4° C. until they were stained with sulforhodamine B. To each well, 1% acetic acid solution containing 0.4% sulforhodamine B was added and left to stand for 20 to 30 minutes at room temperature. After discarding the supernatant, each well was washed with 1% acetic acid solution, and 10 mM Tris([…]) solution was added while stirring to elute the dye taken into the cells. Then, the optical density was determined at the measurement wavelength of 492 nm and the reference wavelength of 690 nm, and the difference was calculated. The cell growth activity in each well was defined as the value determined by subtracting the OD in the control well not containing cells (the difference in absorbance between 492 nm and 690 nm) from that in the test well.
as §3
The growth inhibition on a human hepatic cancer cell line (HuH-7) was also determined by the above method.

[8] = system: human breast cancer cell line (MDA-MB-468); assay: Growth inhibition of MDA-MB-468 cells, sulforhodamine B method; assay type: cell-based; conditions: 120 h, 5 days with test compound
Procedure: as §4, §3

Structure (SMILES) | response vs control in vivo at 10 mg/kg [1] [%] | IC50 [2] [nM] | IC50 [3] [nM] | IC50 [4] [nM] | melting point [°C] | IC50 [5] [nM] | response vs control in vivo at 10 mg/kg (PSA) [%] | IC50 [6] [nM] | IC50 [7] [nM] | IC50 [8] [nM]
Cc1cc(/C=C/C(=O)N2CCN(Cc3ccc(CCOc4ccc(F)cc4)cc3)CC2)cc(Cl)c1Oc1ccc(OCc2ccc(Cl)cc2)cn1.Cl [Example 429, (E)-3-[3-Chloro-4-({5-[(4-chlorobenzyl)oxy]pyridin-2-yl}oxy)-5-methylphenyl]-1-(4-{4-[2-(4-fluorophenoxy)ethyl]benzyl}piperazin-1-yl)prop-2-en-1-one hydrochloride] | < 50 | < 10 | < 10 | < 10 | 224.4 to 228.8 | < 10 | < 50 | < 10 | – | –
COc1ccc(OCCc2ccc(CN3CCN(C(=O)/C=C/c4cc(C)c(Oc5ccc(OCc6ccc(C)cc6)cn5)c(Cl)c4)CC3)cc2)cc1.Cl [Example 440, (E)-3-[3-Chloro-5-methyl-4-({5-[(4-methylbenzyl)oxy]pyridin-2-yl}oxy)phenyl]-1-(4-{4-[2-(4-methoxyphenoxy)ethyl]benzyl}piperazin-1-yl)prop-2-en-1-one hydrochloride] | < 50 | < 10 | < 10 | < 10 | 225.1 to 226.6 | < 10 | < 50 | < 10 | – | –
Cc1ccccc1COc1ccc(Oc2c(C)cc(/C=C/C(=O)N3CCN(Cc4ccc(CCOc5ccc(F)cc5)cc4)CC3)cc2Cl)nc1.Cl [Example 448, (E)-3-[3-Chloro-5-methyl-4-({5-[(2-methylbenzyl)oxy]pyridin-2-yl}oxy)phenyl]-1-(4-{4-[2-(4-fluorophenoxy)ethyl]benzyl}piperazin-1-yl)prop-2-en-1-one hydrochloride] | – | < 10 | < 10 | < 10 | 210.3 to 210.6 | < 10 | – | < 10 | < 10 | < 10
Cc1cc(/C=C/C(=O)N2CCN(Cc3ccc(CCOc4ccc(C(C)C)cc4)cc3)CC2)cc(Cl)c1Oc1ccc(OCc2ccccc2F)cn1.Cl [Example 454, (E)-3-[3-Chloro-4-({5-[(2-fluorobenzyl)oxy]pyridin-2-yl}oxy)-5-methylphenyl]-1-[4-(4-{2-[4-(propan-2-yl)phenoxy]ethyl}benzyl)piperazin-1-yl]prop-2-en-1-one hydrochloride] | – | < 10 | < 10 | < 10 | 188 to 189.5 | < 10 | – | < 10 | < 10 | < 10
Cc1cc(/C=C/C(=O)N2CCN(Cc3ccc(CCOc4ccc(Cl)cc4)cc3)CC2)cc(C)c1Oc1ccc(OCc2ccc(C#N)cc2)cn1.Cl [Example 558, 4-{[(6-{4-[(E)-3-(4-{4-[2-(4-Chlorophenoxy)ethyl]benzyl}piperazin-1-yl)-3-oxoprop-1-en-1-yl]-2,6-dimethylphenoxy}pyridin-3-yl)oxy]methyl}benzonitrile hydrochloride] | – | < 10 | < 10 | < 10 | 219.7 to 220.7 | < 10 | – | < 10 | < 10 | –
Cc1cc(/C=C/C(=O)N2CCN(Cc3ccc(CCOc4ccc(C(C)C)cc4)cc3)CC2)cc(C)c1Oc1ccc(OCc2cscn2)cn1 [Example 600, (E)-3-(3,5-Dimethyl-4-{[5-(1,3-thiazol-4-ylmethoxy)pyridin-2-yl]oxy}phenyl)-1-[4-(4-{2-[4-(propan-2-yl)phenoxy]ethyl}benzyl)piperazin-1-yl]prop-2-en-1-one hydrochloride] | – | < 10 | < 10 | < 10 | – | < 10 | – | < 10 | < 10 | –
Cc1cc(/C=C/C(=O)N2CCN(Cc3ccc(CCOc4ccc(C(C)C)cc4)cc3)CC2)cc(Cl)c1Oc1ccc(OCc2ccccc2Cl)cn1 [Example 608, (E)-3-[3-Chloro-4-({5-[(2-chlorobenzyl)oxy]pyridin-2-yl}oxy)-5-methylphenyl]-1-[4-(4-{2-[4-(propan-2-yl)phenoxy]ethyl}benzyl)piperazin-1-yl]prop-2-en-1-one hydrochloride] | – | < 10 | < 10 | < 10 | – | < 10 | – | < 10 | < 10 | < 10
Cc1cc(/C=C/C(=O)N2CCN(Cc3ccc(Oc4ccc(Cl)cc4)cc3)CC2)cc(C)c1Oc1ccc(OCc2ccc(C#N)cc2)cn1.Cl [Example 692, 4-{[(6-{4-[(E)-3-{4-[4-(4-Chlorophenoxy)benzyl]piperazin-1-yl}-3-oxoprop-1-en-1-yl]-2,6-dimethylphenoxy}pyridin-3-yl)oxy]methyl}benzonitrile hydrochloride] | – | – | – | – | 231.9 to 233.7 | – | – | – | < 10 | –
C/C(C(=O)N1CCN(Cc2ccc(CCOc3ccc(F)cc3)cc2)CC1)=C(/C)c1cc(C)c(Oc2ccc(OCc3ccc(C)cc3)cn2)c(Cl)c1.O=C(O)C(=O)O [Example 751, (E)-3-[3-Chloro-5-methyl-4-({5-[(4-methylbenzyl)oxy]pyridin-2-yl}oxy)phenyl]-1-(4-{4-[2-(4-fluorophenoxy)ethyl]benzyl}piperazin-1-yl)-2-methylbut-2-en-1-one ethanedioate] | – | – | – | – | 236.1 to 236.6 | – | – | – | < 10 | –
COc1cccc(OCCc2ccc(CN3CCN(C(=O)/C=C/c4ccc(Oc5ccc(OCc6ccc(F)cc6)cn5)c(Cl)c4)CC3)cc2)c1.Cl [Example 757, (E)-3-[3-chloro-4-({5-[(4-fluorobenzyl)oxy]pyridin-2-yl}oxy)phenyl]-1-(4-{4-[2-(3-methoxyphenoxy)ethyl]benzyl}piperazin-1-yl)prop-2-en-1-one hydrochloride] | – | – | – | – | 201.5 to 202 | – | – | – | < 10 | –
